Results: patent publication US5965569A, “Polycyclic aminopyridine compounds which are acetylcholinesterase inhibitors, process for preparing them and their use” (priority 1995, dated 1999)
Where a name gives a salt, the structure may show the parent alone. Read-outs that look alike come from different tables or passages of the source.

Experiments:
acetylcholinesterase = acetylcholinesterase (Homo sapiens, UniProt P22303); experiment: Acetylcholinesterase-inhibiting capacity, colorimetric method of Ellman et al.; type: biochemical
[1] = administered intravenously in combination with lecithin, cited from earlier work
[2] = Table 8, with respect to tacrine under the same conditions
[3] = Table 8, with respect to tacrine under the same conditions, hydrochloride

acetylcholinesterase, sequence (P22303 32-614): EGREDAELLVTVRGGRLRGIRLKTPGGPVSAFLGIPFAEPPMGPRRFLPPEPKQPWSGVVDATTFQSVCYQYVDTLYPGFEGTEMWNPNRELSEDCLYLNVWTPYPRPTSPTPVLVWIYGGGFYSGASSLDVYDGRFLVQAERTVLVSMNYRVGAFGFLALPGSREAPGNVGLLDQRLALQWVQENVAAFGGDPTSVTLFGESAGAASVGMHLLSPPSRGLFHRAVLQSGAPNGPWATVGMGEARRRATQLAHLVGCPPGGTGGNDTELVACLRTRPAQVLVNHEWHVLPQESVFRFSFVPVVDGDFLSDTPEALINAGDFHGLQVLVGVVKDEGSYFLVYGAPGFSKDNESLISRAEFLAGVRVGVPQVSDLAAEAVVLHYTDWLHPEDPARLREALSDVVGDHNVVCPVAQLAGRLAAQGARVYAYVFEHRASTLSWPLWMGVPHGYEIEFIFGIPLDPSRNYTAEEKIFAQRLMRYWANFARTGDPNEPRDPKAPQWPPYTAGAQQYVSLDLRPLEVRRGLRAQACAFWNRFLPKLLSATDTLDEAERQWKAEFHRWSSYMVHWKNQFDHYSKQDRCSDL

Compound	IC50 tacrine/IC50 compound (ratio of the IC50 of tacrine to the IC50 of each compound) (acetylcholinesterase; [2])	IC50 tacrine/IC50 compound (ratio of the IC50 of tacrine to the IC50 of each compound) (acetylcholinesterase)	other results
Nc1c2c(nc3ccccc13)CC1C=C(c3ccccc3)CC2C1 (stereo not shown) [Ifw, 12-Amino-9-phenyl-6,7,10,11-tetrahydro-7,11-methanocycloocta[b]quinoline]	1.03		
CC1=CC2Cc3nc4cccc(F)c4c(N)c3C(C1)C2 (stereo not shown) [Ibx, 12-Amino-1-fluoro-6,7,10,11-tetrahydro-9-methyl-7,11-methanocycloocta[b]quinoline]	4.14		
CCC1=CC2Cc3nc4ccccc4c(N)c3C(C1)C2 (racemic) [Icw, 12-Amino-9-ethyl-6,7,10,11-tetrahydro-7,11-methanocycloocta[b]quinoline]	3.38		
CCC1=CC2Cc3nc4ccccc4c(N)c3C(C1)C2 (single isomer, unassigned; (+)) [(+) --Icw, (+)-12-Amino-6,7,10,11-tetrahydro-9-ethyl-7,11-methanocycloocteno[b]quinoline hydrochloride]			IC50 tacrine/IC50 compound (ratio of the IC50 of tacrine to the IC50 of each compound) (acetylcholinesterase; [3]): 0.15
CC1=CC2Cc3nc4ccccc4c(N)c3C(C1)C2 (stereo not drawn) [(+) --Ibw]		0.40	
CC1=CC2Cc3nc4ccccc4c(N)c3C(C1)C2 (racemic) [Ibw, 12-Amino-6,7,10,11-tetrahydro-9-methyl-7,11-methanocycloocta[b]quinoline]		2.00	
CC1=CC2Cc3nc4cc(F)ccc4c(N)c3C(C1)C2 (stereo not shown) [Iby, 12-Amino-3-fluoro-6,7,10,11-tetrahydro-9-methyl-7,11-methanocycloocta[b]quinoline]	15.28		
CC1=CC2Cc3nc4ccccc4c(N)c3C(C1)C2 (stereo not drawn) [(-) --Ibw]		2.80	inhibitory activity against the enzyme acetylcholinesterase (in words) (acetylcholinesterase): much more active than their enantiomers
Nc1c2c(nc3ccccc13)CCCC2 [tacrine, 9-amino-1,2,3,4-tetrahydroacridine]			usefulness in the treatment of Alzheimer's disease (in words) [1]: proves useful in the treatment of Alzheimer's disease; toxicity (in words) ([1]; drawback of tacrine): high toxicity
CCC1=CC2Cc3nc4ccccc4c(N)c3C(C1)C2 (single isomer, unassigned; (-)) [(-) --Icw, (-)-12-Amino-6,7,10,11-tetrahydro-9-ethyl-7,11-methanocycloocteno[b]quinoline hydrochloride]			IC50 tacrine/IC50 compound (ratio of the IC50 of tacrine to the IC50 of each compound) (acetylcholinesterase; [3]): 4.80; inhibitory activity against the enzyme acetylcholinesterase (in words) (acetylcholinesterase; qualitative comparison with tacrine or with enantiomer): much more active than their enantiomers
